Laboratory results published in US20020028807A1, “Non-nucleoside reverse transcriptase inhibitors” (priority 2000, published 2002).

Key:
[1] = tested on: HIV coding for mutant reverse transcriptase K103N/P225H; experiment: ELISA (p24) assay of HIV replication in C8166 cell culture, K103N/P225H virus; assay type: cell-based, HIV-1; conditions: Human immunodeficiency virus 1, C8166, 72 h, read-out: EC50 K103N/P225H
Procedure: (§1) Compounds of the invention were tested for their ability to inhibit HIV replication in cell culture in a 96-well plate assay. Complete RPMI 1640, consisting of RPMI 1640+10% fetal bovine serum, 10 μg/ml gentamycin and 10 μM β-mercaptoethanol was used for dilution of the compound as well as cell growth medium. The T lymphocyte cell line C8166 was infected at a multiplicity of infection of 0.001 with viruses coding for wild-type and mutant reverse transcriptase. Cells were then incubated for three days in the presence of serial dilutions of the compounds of the invention. The supernatant was pooled from eight replica wells and the concentration of extracellular p24 was determined using a commercially available HIV-1 p24 antigen assay kit (Beckman-Coulter®). The level of inhibition (% inhibition) was calculated with the following equation: [formula]

HIV-1 RT P23L = molecular target: T1, HIV-1 RT P23L (Human immunodeficiency virus type 1 group M subtype B, UniProt P03366, P835L); experiment: Reverse transcriptase (RT) assay, P23L mutant; assay type: biochemical
T1 construct: an HIV RT clone pKRT2 containing only the RT p66 gene regulated by the lac operon/trc promoter; made in house; host or cells: E. coli JM109, vector pKK233-2
From the text: (§2) Among the enzymes for which Human Immunodeficiency Virus (HIV-1) encodes is a reverse transcriptase (1), so-named because it transcribes a DNA copy from an RNA template. This activity can be quantitatively measured in a cell-free enzyme assay and is based upon the observation that reverse transcriptase is able to use a synthetic template poly r(C) primed with a biotinylated oligo d(G) to transcribe a radio-labelled DNA strand utilising 3H-dGTP as a substrate. The assay described below utilises the wild-type enzyme (which is the predominant form of the enzyme observed in patients infected with HIV-1) and can also be used with mutant RT enzymes (for example, Y181C, prepared by site-directed mutagenesis in which the tyrosine residue at codon 181 has been replaced by a cysteine residue) in analogous assay conditions. This assay allows compounds to be evaluated for their effectiveness at inhibiting the mutant enzymes.
(§3) Some HIV-1 IIIB clone BH10 RT mutants were provided by Dr. C.-K. Shih (Boehringer Ingelheim Pharmaceutials Inc., U.S.A.) in the vector pKK233-2 (Pharmacia). Briefly an HIV RT clone pKRT2 containing only the RT p66 gene regulated by the lac operon/trc promoter was obtained from Dr. W. Summers (Yale University) (2). A variety of specific amino acid substitutions were introduced into the wild-type RT gene by site-directed mutagenesis. RT clones were subcloned into the pKK233-2 bacterial expression vector. Clones provided included wild-type, Val106Ala, Tyr181Cys, Tyr188Cys, Tyr188Leu, Gly190Ala and Pro236Leu. Others were made in-house by site-directed mutagenesis of the pKK233-2 RT clones including Lys103Asn, Lys103Asn/Tyr181Cys, Lys103Asn/Leu100Ile, Lys103Asn/Pro225His, and Lys103Asn/Val108Ile.
Purification of recombinant reverse transcriptase was performed using a combination of methods previously described (3). A single colony from a fresh plate of transformed JM109 cells was used to initiate growth of a pre-culture grown o/n at 37° C. Two liters of growth medium were inoculated with this pre-culture. At OD600˜1.5 (5-6 h at 37° C.), RT gene expression was induced with IPTG (1 mM final), and the fermentation was continued for a few more hours at 37° C. After centrifugation, supernatants were discarded while cell pellets were pooled and stored at −80° C. until purification. Cells were thawed at 4° C. overnight and suspended in lysis buffer (MES 50 mM pH 6, EDTA 1 mM, 10% v/v glyerol, 0.02% w/v OBG, 0.02% w/v sodium azide). Lysozyme was added and the mixture was incubated on ice for 40 minutes. After homogenization using a bounce in presence of lysozyme and sonication, the cells were centrifuged for 30 minutes. Supernatant (S1) was saved and stored at 4° C. […]

HIV-1 RT V106A = molecular target: T2, HIV-1 RT V106A (Human immunodeficiency virus type 1 group M subtype B, UniProt P03366, V705A); experiment: Reverse transcriptase (RT) assay, V106A mutant; assay type: biochemical
T2 construct: an HIV RT clone pKRT2 containing only the RT p66 gene regulated by the lac operon/trc promoter; made in house; host or cells: E. coli JM109, vector pKK233-2
Method in brief: (§4)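 First, RT mutants were generated by site-directed mutagenesis of the BH10 p66 gene, expressed in E. coli and purified as p66/p51 heterodimer. Then compounds were tested for inhibition of DNA synthesis on biotinylated oligo d(G)-primed poly r(C), with 3H-dGTP supplying label.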

[2] = tested on: HIV coding for mutant reverse transcriptase V106A; experiment: ELISA (p24) assay of HIV replication in C8166 cell culture, V106A virus; assay type: cell-based, HIV-1; conditions: Human immunodeficiency virus 1, C8166, 72 h, read-out: EC50 V106A
Procedure: as §1

HIV-1 RT K103N/P225H = molecular target: T3, HIV-1 RT K103N/P225H (Human immunodeficiency virus type 1 group M subtype B, UniProt P03366, K702N/P824H); experiment: Reverse transcriptase (RT) assay, K103N/P225H mutant; assay type: biochemical
T3 construct: an HIV RT clone pKRT2 containing only the RT p66 gene regulated by the lac operon/trc promoter; made in house; host or cells: E. coli JM109, vector pKK233-2
Method in brief: as §4

HIV-1 RT Y188C = molecular target: T4, HIV-1 RT Y188C (Human immunodeficiency virus type 1 group M subtype B, UniProt P03366, Y787C); experiment: Reverse transcriptase (RT) assay, Y188C mutant; assay type: biochemical
T4 construct: an HIV RT clone pKRT2 containing only the RT p66 gene regulated by the lac operon/trc promoter; made in house; host or cells: E. coli JM109, vector pKK233-2
From the text: as §2, §3
(§5) Purification of recombinant reverse transcriptase was performed using a combination of methods previously described (3). A single colony from a fresh plate of transformed JM109 cells was used to initiate growth of a pre-culture grown o/n at 37° C. Two liters of growth medium were inoculated with this pre-culture. At OD600˜1.5 (5-6 h at 37° C.), RT gene expression was induced with IPTG (1 mM final), and the fermentation was continued for a few more hours at 37° C. After centrifugation, supernatants were discarded while cell pellets were pooled and stored at −80° C. until purification. Cells were thawed at 4° C. overnight and suspended in lysis buffer (MES 50 mM pH 6, EDTA 1 mM, 10% v/v glyerol, 0.02% w/v OBG, 0.02% w/v sodium azide). Lysozyme was added and the mixture was incubated on ice for 40 minutes. After homogenization using a bounce in presence of lysozyme and sonication, the cells were centrifuged for 30 minutes. Supernatant (S1) was saved and stored at 4° C. The centrifuged pellet was resuspended in extraction buffer (MES 50 mM pH 6, KPO4 50 mM pH 6, KCl 100 mM, 10% v/v glycerol, 0.02% w/v OBG, 0.02% w/v sodium axide) and stirred for 30 minutes at 4° C. This second mixture was centrifuged again and the supernatant (S2) was saved. The above procedure was repeated 2 more times saving supernatants S3 and S4 and one last extraction was performed overnight (S5). Polymin P (0.005% final) was added to the combined supernatants to remove nucleic acids. This solution was stirred for 75 minutes at 4° C. and centrifuged for 1 h. The supernatant (SS1) was precipitated on ice with 20% w/v ammonium sulfate and stirred for 1 h at 4° C. The mixture was then centrifuged and the resulting supernatant (SS2) was precipitated with additional 40% w/v ammonium sulfate (60% total), stirred for 1 h and centrifuged again. The final pellet (P1) was stored overnight at 4° C. before undergoing purification the following day. All steps of the purification were performed at 4° C. unless otherwise stated.
(§6) Pellet (P1) was resuspended into MES 50 mM pH 6, KPO4 10 mM pH 6, KCl 100 mM, 10% v/v glycerol, 0.02% w/v OBG, 0.02% w/v sodium azide. The suspension was dialysis against the same buffer overnight using 12-14 kD MWCO dialysis tubing. […]

HIV-1 RT K103N = molecular target: T5, HIV-1 RT K103N (Human immunodeficiency virus type 1 group M subtype B, UniProt P03366, K702N); experiment: Reverse transcriptase (RT) assay, K103N mutant; assay type: biochemical
T5 construct: an HIV RT clone pKRT2 containing only the RT p66 gene regulated by the lac operon/trc promoter; made in house; host or cells: E. coli JM109, vector pKK233-2
Method in brief: as §4

[3] = tested on: HIV coding for mutant reverse transcriptase Y188L; experiment: ELISA (p24) assay of HIV replication in C8166 cell culture, Y188L virus; assay type: cell-based, HIV-1; conditions: Human immunodeficiency virus 1, C8166, 72 h, read-out: EC50 Y188L
Procedure: as §1

HIV-1 RT wild-type (WT) = molecular target: T6, HIV-1 RT wild-type (WT) (Human immunodeficiency virus type 1 group M subtype B, UniProt P03366); experiment: Reverse transcriptase (RT) assay, wild-type enzyme; assay type: biochemical
T6 construct: an HIV RT clone pKRT2 containing only the RT p66 gene regulated by the lac operon/trc promoter; made in house; host or cells: E. coli JM109, vector pKK233-2

HIV-1 RT G190A = molecular target: T7, HIV-1 RT G190A (Human immunodeficiency virus type 1 group M subtype B, UniProt P03366, G789A); experiment: Reverse transcriptase (RT) assay, G190A mutant; assay type: biochemical
T7 construct: an HIV RT clone pKRT2 containing only the RT p66 gene regulated by the lac operon/trc promoter; made in house; host or cells: E. coli JM109, vector pKK233-2
From the text: as §2, §3, §5, §6

Compound | EC50 [1] | IC50 (HIV-1 RT P23L) | IC50 (HIV-1 RT V106A) | EC50 [2] | IC50 (HIV-1 RT K103N/P225H) | IC50 (HIV-1 RT Y188C) | IC50 (HIV-1 RT K103N) | EC50 [3] | IC50 (HIV-1 RT wild-type (WT)) | IC50 (HIV-1 RT G190A)
CCN1c2ncc(CCOc3cc[n+]([O-])c4ccccc34)cc2C(=O)N(C)c2ccc(F)nc21 [compound 11, 5,11-Dihydro-11-ethyl-2-fluoro-5-methyl-8-{2-{(1-oxido-4-quinolinyl)oxy}-ethyl}-6H-dipyrido[3,2-b:2′,3′-e][1,4]diazepin-6-one] | 2 nM | 56 nM | 336 nM | 28 nM | 15 nM | 6.6 nM | 18 nM | 52 nM | 9.5 nM | 19 nM
CCN1c2ncc(CCOc3cc[n+]([O-])c4ccccc34)cc2C(=O)N(C)c2ccc(Cl)nc21 [compound 17, 2-Chloro-5,11-dihydro-11-ethyl-5-methyl-8-{2-{(1-oxido-4-quinolinyl)oxy}-ethyl}-6H-dipyrido[3,2-b:2′,3′-e][1,4]diazepin-6-one] | 1.2 nM | 60 nM | 319 nM | 24 nM | 23 nM | 8.1 nM | 25 nM | 58 nM | 14 nM | 25 nM
CCN1c2ncc(CCOc3cc[n+]([O-])c4ccccc34)cc2C(=O)N(C)c2cccnc21 [compound 21, 5,11-Dihydro-11-ethyl-5-methyl-8-{2-{(1-oxido-4-quinolinyl)oxy}ethyl}-6H-dipyrido[3,2-b:2′,3′-e][1,4]diazepin-6-one] | 2.9 nM | 129 nM | 1110 nM | 65 nM | 40 nM | 9.9 nM | 44 nM | 67 nM | 17 nM | 26 nM
